This note sets out measurements from patent US10689357B2, “N-acylethanolamine hydrolyzing acid amidase (NAAA) inhibitors and use thereof” (Northeastern University, priority 2018, dated 2020).

Counter-ions that a name gives are not always drawn.

hNAAA, sequence (Q02083 29-125): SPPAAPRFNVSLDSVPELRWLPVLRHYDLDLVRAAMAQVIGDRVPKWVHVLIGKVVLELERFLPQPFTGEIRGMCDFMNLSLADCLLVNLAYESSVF
hNAAA, sequence (Q02083 126-359): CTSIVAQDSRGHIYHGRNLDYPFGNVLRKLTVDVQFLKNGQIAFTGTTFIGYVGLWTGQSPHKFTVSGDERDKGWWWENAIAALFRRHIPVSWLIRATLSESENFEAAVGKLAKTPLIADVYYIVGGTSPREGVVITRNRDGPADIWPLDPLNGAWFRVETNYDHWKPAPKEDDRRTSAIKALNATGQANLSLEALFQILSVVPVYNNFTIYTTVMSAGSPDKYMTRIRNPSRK

The target of the test is hNAAA (Homo sapiens (Human), UniProt Q02083). As to the kind of experiment: NAAA fluorescence-based inhibition assay with PAMCA substrate. It is filed as biochemical. Conditions: purified activated hNAAA, PAMCA 5 μM, pH 4.5, 37° C. From the text:
In order to have an assay method more conducive to high-throughput screening than those published for measuring the NAE hydrolyzing activity of NAAA [Proc. Natl. Acad. Sci. USA. 2009; 106(49):20966-71], the fluorogenic PEA analog N-(4-methyl coumarin)palmitamide (PAMCA), which is hydrolyzed to fluorescent 7-amino-4-methyl coumarin (AMC) and palmitic acid, was developed. [J. Proteome Res. 2012; 11(2):972-981], [PloS One. 2012; 7: e43877]. For three point concentration inhibition assays with hNAAA the following procedure was used. Purified activated NAAA (final concentration of 0.25 μg/mL) was incubated in assay buffer (100 mM citrate-phosphate buffer, pH 4.5, 3 mM DTT, 0.1% Triton X-100, 0.05% BSA, and 150 mM NaCl) made up to a total volume of 180 μL, followed by addition of the compound dissolved in 10 μL DMSO (along with DMSO neat for the control sample) with the final concentrations for each compound of 100, 10, and 1 μM, in triplicate on a 96 well plate. These samples were allowed to incubate for 15 min at room temperature and then 10 μL of a PAMCA stock solution in DMSO (final PAMCA concentration [5 μM]) was added. After 5 minutes of agitation on a shaking plate, the reaction was allowed to proceed at 37° C. for 120 minutes, with fluorescence readings taken every 10 minutes at a wavelength of 460 nm (using an excitation wavelength of 360 nm) on a Synergy HT Plate Reader using Gen5 software from Bio-Tek. The enzyme activity was calculated by converting the relative fluorescence units to AMC formed, using a standard curve of AMC.
For compounds that inhibit hNAAA in range IC50<1 μM, full inhibition curves using eight different concentrations of inhibitor (8 point assay) were generated. The assay procedure used was the same as the three point assay. For ostensibly covalent compounds (as observed by a significant decrease in the slope of a plot of fluorescence vs. time in three point screen), samples were allowed to incubate for 2 hours at 37° C., instead of 15 minutes, before addition of 10 μL of a PAMCA stock solution in DMSO for a final PAMCA concentration of 5 μM. After 5 minutes of agitation on a shaking plate, the reaction was allowed to proceed at 37° C. for 120 minutes. Inhibition constants were calculated using pro Fit software (Quantum Soft, Uetikon am See, Switzerland) and a Levenberg-Marquardt algorithm.
`COc1ccc(N2CC(C(=O)N[C@H]3C[C@@H](N=C=S)C3)C2)cc1` [Example 36, N-((1s,3s)-3-Isothiocyanatocyclobutyl)-1-(4-methoxyphenyl)azetidine-3-carboxamide]: the IC50 (commonly the concentration that inhibits the measured activity by half) is 0.11 to 1 µM.
The figure for `COc1ccc(C23CC(C(=O)N[C@H]4C[C@@H](N=C=S)C4)(C2)C3)cc1` [Example 37, N-((1s,3s)-3-isothiocyanatocyclobutyl)-3-(4-methoxyphenyl)bicyclo[1.1.1]pentane-1-carboxamide] is 0.11 to 1 µM.
On to `COc1ccc(-c2cnc(C(=O)N[C@H]3C[C@@H](N=C=S)C3)c(N3CCC3)c2)cc1` [Example 38, 3-(Azetidin-1-yl)-N-((1s,3s)-3-isothiocyanatocyclobutyl)-5-(4-methoxyphenyl)picolinamide], for which the IC50 was in the range of 0.11 to 1 µM.
As for `COc1ccc(-c2ccc(C(C)O[C@H]3C[C@@H](N=C=S)C3)nc2)cc1` (stereo partly drawn) [Example 39, 2-(1-((1s,3s)-3-Isothiocyanatocyclobutoxy)ethyl)-5-(4-methoxyphenyl)pyridine], the IC50 was in the range of 0.01 to 0.1 µM.
The result for `COc1ccc(-c2ccc(C(C)O[C@H]3C[C@@H](N=C=S)C3)nc2)cc1F` (stereo partly drawn) [Example 40, 5-(3-Fluoro-4-methoxyphenyl)-2-(1-((1s,3s)-3-isothiocyanatocyclobutoxy)ethyl)pyridine] reads 0.11 to 1 µM.
Consider `COc1ccc([C@H]2C[C@@H](C(=O)N[C@H]3C[C@@H](N=C=S)C3)C2)cc1` [Example 41, (1s,3S)—N-((1s,3S)-3-Isothiocyanatocyclobutyl)-3-(4-methoxyphenyl) cyclobutane-1-carboxamide], for which the IC50 was in the range of 0.01 to 0.1 µM.
For the molecule `COc1ccc(-c2ccc(CO[C@H]3C[C@@H](N=C=S)C3)nc2)nc1` [Example 42, 6′-(((1s,3s)-3-Isothiocyanatocyclobutoxy)methyl)-5-methoxy-2,3′-bipyridine succinate], the IC50 lay in the range of 0.01 to 0.1 µM.
On to `COc1ccc(-c2ccc(CO[C@H]3C[C@@H](N=C=S)C3)nc2)cc1F` [Example 43, 5-(3-Fluoro-4-methoxyphenyl)-2-(((1s,3s)-3-isothiocyanatocyclobutoxy)methyl)pyridine citrate], for which the IC50 lay within 0.01 to 0.1 µM.
In the case of “(1r, 3r)-3-Isothiocyanatocyclobutyl 5-(4-methoxyphenyl)picolinate [Example 21]”, the 50% inhibitory concentration (IC50) was in the range of 0.01 to 0.1 µM.
